Results taken from patent US20210221866A1, “PROTEASE-RESISTANT LIPIDATED GLP-1 ANALOGS” (MEDIMMUNE LIMITED, priority 2015, published 2021).
Read-outs that look alike come from different tables or passages of the source. Numbered stars: 1 amine (or outer) side, 2 acyl side, 3 side chain; on linkers, the order of the positions; unused ones are H or OH. Square brackets hold non-standard residues; d marks the D form. Side chains are listed from the residue outwards. Peptide text beside a SMILES is read from it. * marks the point of attachment. C18 diacid = O=C(O)CCCCCCCCCCCCCCCCC(=O)*; γGlu = O=C(O)[C@H](CCC(=O)[*:2])N[*:1]; αMeF = C[C@](N)(Cc1ccccc1)C(=O)O; αMeK = C[C@](N)(CCCCN)C(=O)O; Lauroyl = CCCCCCCCCCCC(=O)*; αMeS = C[C@](N)(CO)C(=O)O; AEEA = NCCOCCOCC(=O)O; Aib = CC(C)(N)C(=O)O

Assays:
Type in all cases: cell-based
[1] = biological target: T1, human glucagon receptor (GCGR) (Homo sapiens, UniProt P47871); assay: cAMP assay, human GCGR cells
T1 construct: expressed in transfected cells; host or cells: HEK293 cells or CHO cells
T1 sequence (P47871 26-477): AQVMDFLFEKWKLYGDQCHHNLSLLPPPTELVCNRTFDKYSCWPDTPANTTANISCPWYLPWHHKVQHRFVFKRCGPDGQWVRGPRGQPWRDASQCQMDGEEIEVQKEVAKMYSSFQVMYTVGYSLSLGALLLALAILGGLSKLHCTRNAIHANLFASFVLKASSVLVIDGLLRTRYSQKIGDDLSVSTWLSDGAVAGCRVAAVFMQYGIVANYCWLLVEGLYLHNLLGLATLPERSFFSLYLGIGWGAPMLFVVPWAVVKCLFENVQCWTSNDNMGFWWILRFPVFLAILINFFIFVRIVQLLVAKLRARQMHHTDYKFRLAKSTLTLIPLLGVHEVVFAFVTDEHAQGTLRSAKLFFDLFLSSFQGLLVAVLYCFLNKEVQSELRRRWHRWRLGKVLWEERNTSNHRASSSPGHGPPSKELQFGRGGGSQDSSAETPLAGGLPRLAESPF
Outline: (§1)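 Peptide-stimulated cAMP measured by two-step HTRF after a 30 min room-temperature incubation with receptor-expressing cells (hGLP-1R, hGIPR at 1×10^5 cells/ml; hGCGR at 2×10^5 cells/ml). Duplicate dilutions; EC50 from 4-parameter logistic fit of % Delta F.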

GLP-1R (INS1e cells) = biological target: T2, GLP-1R (INS1e cells) (Rattus norvegicus, UniProt P32301); assay: INS1e assay, cAMP activity at GLP-1R
T2 construct: endogenous in cells; host or cells: INS1e cells
T2 sequence (P32301 22-463): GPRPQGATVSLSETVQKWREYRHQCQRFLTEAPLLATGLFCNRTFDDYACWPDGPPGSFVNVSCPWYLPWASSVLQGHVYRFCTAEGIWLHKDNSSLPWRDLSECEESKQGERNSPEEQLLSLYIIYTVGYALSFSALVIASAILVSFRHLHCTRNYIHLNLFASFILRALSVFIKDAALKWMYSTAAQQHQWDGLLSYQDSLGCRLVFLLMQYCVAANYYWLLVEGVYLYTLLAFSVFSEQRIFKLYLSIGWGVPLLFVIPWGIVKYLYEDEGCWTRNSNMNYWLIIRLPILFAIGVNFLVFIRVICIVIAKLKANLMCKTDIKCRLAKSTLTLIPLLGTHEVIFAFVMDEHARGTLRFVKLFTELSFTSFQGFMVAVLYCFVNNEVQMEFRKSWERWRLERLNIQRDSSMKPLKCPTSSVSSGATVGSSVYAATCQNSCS

[2] = biological target: T3, human GLP-1 receptor (GLP-1R) (Homo sapiens, UniProt P43220); assay: cAMP assay, human GLP-1R cells
T3 construct: expressed in transfected cells; host or cells: HEK293 cells or CHO cells
T3 sequence (P43220 24-463): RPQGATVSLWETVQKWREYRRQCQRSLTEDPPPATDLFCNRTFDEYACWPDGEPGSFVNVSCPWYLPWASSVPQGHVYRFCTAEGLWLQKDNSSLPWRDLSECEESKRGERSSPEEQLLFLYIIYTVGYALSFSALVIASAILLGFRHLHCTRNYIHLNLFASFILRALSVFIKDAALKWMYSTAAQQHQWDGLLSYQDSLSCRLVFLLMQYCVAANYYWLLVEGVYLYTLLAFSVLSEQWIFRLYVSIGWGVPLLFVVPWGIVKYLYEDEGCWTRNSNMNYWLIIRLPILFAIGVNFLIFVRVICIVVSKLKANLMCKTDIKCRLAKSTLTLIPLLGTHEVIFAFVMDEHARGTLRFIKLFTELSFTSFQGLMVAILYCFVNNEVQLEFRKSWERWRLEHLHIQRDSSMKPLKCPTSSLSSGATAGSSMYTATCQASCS
Outline: as §1

[3] = biological target: T4, human glucose-dependent insulinotropic peptide receptor (GIPR) (Homo sapiens, UniProt P48546); assay: cAMP assay, human GIPR cells
T4 construct: expressed in transfected cells; host or cells: HEK293 cells or CHO cells
T4 sequence (P48546 22-466): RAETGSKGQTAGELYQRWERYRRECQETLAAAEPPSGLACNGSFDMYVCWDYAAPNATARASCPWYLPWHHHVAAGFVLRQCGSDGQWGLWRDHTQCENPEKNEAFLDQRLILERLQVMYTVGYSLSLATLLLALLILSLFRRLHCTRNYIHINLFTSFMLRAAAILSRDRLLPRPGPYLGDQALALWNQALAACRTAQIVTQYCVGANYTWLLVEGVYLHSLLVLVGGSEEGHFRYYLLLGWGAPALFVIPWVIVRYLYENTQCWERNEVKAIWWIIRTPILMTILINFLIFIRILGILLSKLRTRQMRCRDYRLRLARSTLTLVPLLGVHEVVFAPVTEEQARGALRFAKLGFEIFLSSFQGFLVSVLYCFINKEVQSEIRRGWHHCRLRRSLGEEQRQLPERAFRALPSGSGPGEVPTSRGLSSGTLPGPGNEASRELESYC
Outline: as §1

[4] = cAMP activity, second determination (n2), read-out: Primary assay EC50 Gluc-R
[5] = Table 8, substituted and mono-lipidated peptides, mean of n1 and n2, read-out: INS1e assay EC50 Mean pM GLP-1R
[6] = Table 8, substituted and mono-lipidated peptides, replicate n1, read-out: INS1e assay EC50 GLP-1R n1
[7] = Table 8, substituted and mono-lipidated peptides, replicate n2, read-out: INS1e assay EC50 GLP-1R n2
[8] = cAMP activity, first determination (n1), read-out: Primary assay EC50 GLP-1R n1
[9] = cAMP activity, mean of n1 and n2, read-out: Mean pM GLP-1R
[10] = cAMP activity, second determination (n2), read-out: Primary assay EC50 GLP-1R n2
[11] = cAMP activity, first determination (n1), read-out: Primary assay EC50 GIP-R
[12] = cAMP activity, second determination (n2), read-out: Primary assay EC50 GIP-R

Compound | EC50 [1, 4] | EC50 (GLP-1R (INS1e cells); [5]) | EC50 (GLP-1R (INS1e cells); [6]) | EC50 (GLP-1R (INS1e cells); [7]) | EC50 [2, 8] | EC50 [2, 9] | EC50 [2, 10] | EC50 [3, 11] | EC50 [3, 12] | EC50 ([1]; Table 9, bis-lipidated peptides, first replicate, read-out: Primary assay EC50 Gluc-R (n1)) | EC50 ([1]; Table 9, bis-lipidated peptides, second replicate, read-out: Primary assay EC50 Gluc-R (n2)) | EC50 (GLP-1R (INS1e cells); Table 10, bis-lipidated peptides, mean of n1 and n2, read-out: INS1e assay EC50 Mean pM GLP-1R) | EC50 (GLP-1R (INS1e cells); Table 10, bis-lipidated peptides, replicate n1, read-out: INS1e assay EC50 GLP-1R n1) | EC50 (GLP-1R (INS1e cells); Table 10, bis-lipidated peptides, replicate n2, read-out: INS1e assay EC50 GLP-1R n2) | EC50 ([2]; Table 9, bis-lipidated peptides, mean of n1 and n2, read-out: Primary assay EC50 Mean pM GLP-1R) | EC50 ([2]; Table 9, bis-lipidated peptides, replicate n1, read-out: Primary assay EC50 GLP-1R n1) | EC50 ([2]; Table 9, bis-lipidated peptides, replicate n2, read-out: Primary assay EC50 GLP-1R n2) | EC50 ([3]; Table 9, bis-lipidated peptides, first replicate, read-out: Primary assay EC50 GIP-R (n1)) | EC50 ([3]; Table 9, bis-lipidated peptides, second replicate, read-out: Primary assay EC50 GIP-R (n2))
CCCCCCCCCCCC(=O)NCCOCCOCC(=O)NCCCC[C@H](NC(=O)[C@@H](NC(=O)[C@@H](NC(=O)[C@](C)(Cc1ccccc1)NC(=O)[C@H](C)NC(=O)[C@@H](NC(=O)[C@](C)(Cc1ccccc1)NC(=O)[C@H](CCC(=O)O)NC(=O)[C@](C)(CCCCN)NC(=O)[C@H](C)NC(=O)[C@H](C)NC(=O)[C@H](CCC(=O)O)NC(=O)CNC(=O)[C@H](CCC(=O)O)NC(=O)[C@H](CC(C)C)NC(=O)[C@](C)(Cc1ccccc1)NC(=O)[C@H](CO)NC(=O)[C@](C)(CO)NC(=O)[C@@H](NC(=O)[C@H](CC(=O)O)NC(=O)[C@H](CO)NC(=O)[C@@H](NC(=O)[C@](C)(Cc1ccccc1)NC(=O)[C@H](CO)NC(=O)CNC(=O)[C@H](CCC(=O)O)NC(=O)C(C)(C)NC(=O)[C@@H](N)Cc1c[nH]cn1)[C@@H](C)O)C(C)C)[C@@H](C)CC)C(C)C)C(C)C)C(=O)NCC(=O)NCC(N)=O [compound 170] | ≥ 28 nM | 462 pM | 548 pM | 376 pM | 8 pM | 6.2 pM | 4.5 pM | ≥ 28 nM | ≥ 28 nM |  |  |  |  |  |  |  |  |  | 
CCCCCCCCCCCC(=O)N[C@@H](CCC(=O)NCCOCCOCC(=O)NCCOCCOCC(=O)NCCCC[C@H](NC(=O)[C@H](CO)NC(=O)[C@](C)(CO)NC(=O)[C@@H](NC(=O)[C@H](CC(=O)O)NC(=O)[C@H](CO)NC(=O)[C@@H](NC(=O)[C@](C)(Cc1ccccc1)NC(=O)[C@H](CO)NC(=O)CNC(=O)[C@H](CCC(=O)O)NC(=O)C(C)(C)NC(=O)[C@@H](N)Cc1c[nH]cn1)[C@@H](C)O)C(C)C)C(=O)N[C@@H](CC(C)C)C(=O)N[C@@H](CCC(=O)O)C(=O)NCC(=O)N[C@@H](CCC(=O)O)C(=O)N[C@@H](C)C(=O)N[C@@H](C)C(=O)N[C@@](C)(CCCCN)C(=O)N[C@@H](CCC(=O)O)C(=O)N[C@@H](Cc1ccccc1)C(=O)N[C@H](C(=O)N[C@@H](C)C(=O)N[C@@H](Cc1c[nH]c2ccccc12)C(=O)N[C@@H](CCCCNC(=O)COCCOCCNC(=O)COCCOCCNC(=O)CC[C@H](NC(=O)CCCCCCCCCCC)C(=O)O)C(=O)N[C@H](C(=O)N[C@@H](CCC(=O)O)C(=O)NCC(=O)NCC(N)=O)C(C)C)[C@@H](C)CC)C(=O)O [compound 264] (H-H[Aib]EGS[αMeF]TSDV[αMeS]SK([AEEA-AEEA-γGlu-Lauroyl])LEGEAA[αMeK]EFIAWK([AEEA-AEEA-γGlu-Lauroyl])VEGG-NH2; N-terminus assumed) |  |  |  |  |  |  |  |  |  | ≥ 22.6 nM | ≥ 22.6 nM | 1030 pM | 963 pM | 1100 pM | 12.8 pM | 18.2 pM | 7.37 pM | ≥ 22.6 nM | ≥ 22.6 nM
CC[C@H](C)[C@H](NC(=O)[C@](C)(Cc1ccccc1)NC(=O)[C@H](CCC(=O)O)NC(=O)[C@](C)(CCCCN)NC(=O)[C@H](C)NC(=O)[C@H](C)NC(=O)[C@H](CCC(=O)O)NC(=O)CNC(=O)[C@H](CCC(=O)O)NC(=O)[C@H](CC(C)C)NC(=O)[C@](C)(Cc1ccccc1)NC(=O)[C@H](CO)NC(=O)[C@](C)(CO)NC(=O)[C@@H](NC(=O)[C@H](CC(=O)O)NC(=O)[C@H](CO)NC(=O)[C@@H](NC(=O)[C@](C)(Cc1ccccc1)NC(=O)[C@H](CO)NC(=O)CNC(=O)[C@H](CCC(=O)O)NC(=O)C(C)(C)NC(=O)[C@@H](N)Cc1c[nH]cn1)[C@@H](C)O)C(C)C)C(=O)N[C@@H](C)C(=O)N[C@@](C)(Cc1ccccc1)C(=O)N[C@@H](CCCCNC(=O)COCCOCCNC(=O)COCCOCCNC(=O)CC[C@H](NC(=O)CCCCCCCCCCCCCCCCC(=O)O)C(=O)O)C(=O)N[C@H](C(=O)N[C@@](C)(CCCCN)C(=O)NCC(=O)NCC(N)=O)C(C)C [compound 103] (H-H[Aib]EGS[αMeF]TSDV[αMeS]S[αMeF]LEGEAA[αMeK]E[αMeF]IA[αMeF]K([AEEA-AEEA-γGlu-C18 diacid])V[αMeK]GG-NH2) | ≥ 25.2 nM | 509 pM | 428 pM | 590 pM | 4.7 pM | 5 pM | 4.56 pM | ≥ 25 nM | ≥ 25.2 nM |  |  |  |  |  |  |  |  |  | 
CCCCCCCCCCCCCCCCCC(=O)NCCOCCOCC(=O)NCCOCCOCC(=O)NCCOCCOCC(=O)NCCCC[C@H](NC(=O)[C@H](C)NC(=O)[C@H](C)NC(=O)[C@H](CCC(=O)O)NC(=O)CNC(=O)[C@H](CCC(=O)O)NC(=O)[C@H](CC(C)C)NC(=O)[C@](C)(Cc1ccccc1)NC(=O)[C@H](CO)NC(=O)[C@](C)(CO)NC(=O)[C@@H](NC(=O)[C@H](CC(=O)O)NC(=O)[C@H](CO)NC(=O)[C@@H](NC(=O)[C@](C)(Cc1ccccc1)NC(=O)[C@H](CO)NC(=O)CNC(=O)[C@H](CCC(=O)O)NC(=O)C(C)(C)NC(=O)[C@@H](N)Cc1c[nH]cn1)[C@@H](C)O)C(C)C)C(=O)N[C@@H](CCC(=O)O)C(=O)N[C@@](C)(Cc1ccccc1)C(=O)N[C@H](C(=O)N[C@@H](C)C(=O)N[C@@](C)(Cc1ccccc1)C(=O)N[C@H](C(=O)N[C@H](C(=O)N[C@@H](CCCCN)C(=O)NCC(=O)NCC(N)=O)C(C)C)C(C)C)[C@@H](C)CC [compound 56] | ≥ 26 nM | 56 pM | 35.2 pM | 77 pM | 2.9 pM | 3.2 pM | 3.5 pM | ≥ 26 nM | ≥ 26 nM |  |  |  |  |  |  |  |  |  | 
